Measurements reported in patent US6683079B2, “3-(amino-or aminoalkyl) pyridinone derivatives and their use for the treatment of HIV related diseases” (Centre National de la Recherche Scientifique, priority 1998, dated 2004).

Legend:
HIV-1 strain IIIB = assay: Retrovirucidal effect on HIV-1 strain IIIB (Table 3); format: cell-based; conditions: pIC50=-log IC50, IC50 in M
Experimental: (§1) HIV-1 viral suspensions were obtained by coculture of MT4 cells and H9 cells chronically infected by HIV-ILai isolate. 200 μl of a cell supernatant containing viral particles (HIV-ILai: 100 TCID50) were incubated at room temperature with various concentrations of different inhibitors. After 3 hours, virions were washed through 0.02 μm anopore membrane in 1.5 mL Vectaspin tube (Whatman) for 10 minutes at 5 000 g. Each of the three subsequent washes was performed in the same conditions after the viral concentrate was refilled with 500 μL of RPMI medium. Then, the viral concentrate was readjusted to the initial volume with RPMI plus 10% foetal calf serum (FCS). The residual infectivity was assayed on P4 cells as described by CHARNEAU et al. (1994, J. Mol. Biol., 241, 651-662). Briefly, P4 cells were plated using 100 μL of DMEM medium plus 10% FCS in 96 plate multi-wells at 20×10^5 cells per mL. After overnight incubation at 37° C., the supernatant was discarded and the viral preparation (200 μL) was added. One day later the wells were washed three times in PBS. Each well was refilled with 200 μL of a reaction buffer containing 50 mM Tris-HCl pH 8.5, 100 mM 2-mercaptoethanol, 0.05% Triton X-100 and 5 mM 4-methylumbelliferyl β-D-galactopyranoside (MUG). After 3 hours at 37° C., the level of the reaction was measured in a fluorescence microplate reader.
(§2) The retrovirucidal effect of each pyridinone derivative listed in table 3 has been assayed according to the teachings of example 2, excepted that the anti-viral effect has been tested on the two following HIV-1 strains:
a) HIV-1 strain IIIB (see example 2);

HIV-1 strain 103 N = assay: Retrovirucidal effect on HIV-1 strain 103 N (Table 3); format: cell-based; conditions: HIV-1 strain 103N (RT Lys-103 to Asn mutant); pIC50=-log IC50, IC50 in M
Experimental: as §1, §2
b) HIV-1 strain 103 N which is a mutant strain bearing a point mutation in the reverse transcriptase gene leading to an enzyme wherein the initial Lys-103 residue is replaced for a Asn residue.
The HIV-1 103 N strain has also been described by SAHLBERG et al.,(1998, Antiviral Res., 37 (3): ASS) and BALZARiNI et al. (1996, Antimicrobial Agents and Chemotherapy, 40 (6): 1454-1466).

Row | SMILES | HIV1 pIC50 strain IIIB (HIV-1 strain IIIB) | HIV1 pIC50 strain 103N (HIV-1 strain 103 N)
1 | CCc1c(C)[nH]c(=O)c(N)c1Cc1ccc(C(F)(F)F)cc1 [Compound 52] | <4 | <5
2 | CCc1c(C)[nH]c(=O)c(N(C)C)c1Cc1ccc(C(F)(F)F)cc1 [Compound 53] | 5.828 | <5
3 | CCc1c(C)[nH]c(=O)c(N)c1Cc1ccc(Cl)cc1 [Compound 54] | <4 | <5
4 | CCc1c(C)[nH]c(=O)c(N(C)CC)c1Cc1cc(C)cc(C)c1 [Compound 56] | 8.194 | 7.11
5 | CCc1c(C)[nH]c(=O)c(N(C)C)c1Cc1cccc(C(F)(F)F)c1 [Compound 57] | 8.086 | 6.414
6 | CCc1c(C)[nH]c(=O)c(N)c1Cc1c(C)cc(C)cc1C [Compound 58] | <4 | <5
7 | CCc1c(C)[nH]c(=O)c(N(C)C)c1Cc1c(C)cc(C)cc1C [Compound 59] | 5.029 | <5
8 | CCc1c(C)[nH]c(=O)c(N(C)C)c1Cc1cccc(Br)c1 [Compound 60] | 8.444 | 7.001
9 | CCc1c(C)[nH]c(=O)c(N(C)CCCSC)c1Cc1cc(C)cc(C)c1 [Compound 61] | 7.693 | 5.922
10 | CCc1c(C)[nH]c(=O)c(N(C)CC(C)C)c1Cc1cc(C)cc(C)c1 [Compound 62] | 6.604 | 5.305
11 | CCCc1[nH]c(=O)c(N(C)C)c(Cc2cc(C)cc(C)c2)c1C [Compound 63] | 7.029 | 6.334
12 | CCc1c(C)[nH]c(=O)c(N(C)C)c1Cc1ccccc1Cl [Compound 65] | 8.284 | 6.405
13 | CCc1c(C)[nH]c(=O)c(N(C)C)c1Cc1nccs1 [Compound 66] | 7.588 | 5.72
14 | CCc1c(C)[nH]c(=O)c(N(C)Cc2ccccc2)c1Cc1cc(C)cc(C)c1 [Compound 67] | 6.804 | 4.955
15 | CCCCNc1c(Cc2cc(C)cc(C)c2)c(CC)c(C)[nH]c1=O [Compound 69] | 6.891 | 5.655
16 | CCCc1c(C)[nH]c(=O)c(N(C)C)c1Cc1cc(C)cc(C)c1 [Compound 71] | 7.777 | 7.049
17 | CCc1c(C)[nH]c(=O)c(NCC(C)C)c1Cc1cc(C)cc(C)c1 [Compound 72] | 7.079 | <4
18 | CCc1c(C)[nH]c(=O)c(N)c1C(OC)c1cc(C)cc(C)c1 (stereo not drawn) [Compound 73] | 8.027 | 6.92
19 | CCc1c(C)[nH]c(=O)c(N)c1Cc1ccnc2ccccc12 [Compound 74] | <4 | <4
20 | CCc1c(C)[nH]c(=O)c(N(C)C)c1Cc1ccnc2ccccc12 [Compound 75] | 5.252 | 4.132
21 | Cc1cc(C)cc(Cc2cc(CCC(C)C)[nH]c(=O)c2N)c1 [Compound 76] | <5.494 | <4
22 | Cc1cc(C)cc(Cc2cc(CCC(C)C)[nH]c(=O)c2N(C)C)c1 [Compound 77] | 5.827 | <4
23 | CCc1c(C)[nH]c(=O)c(N(C)CCOC)c1Cc1cc(C)cc(C)c1 [Compound 78] | 8.678 | 7.128
24 | CCc1c(C)[nH]c(=O)c(N(C)C(C)C)c1Cc1cc(C)cc(C)c1 [Compound 79] | 6.987 | 5.47

Row | SMILES | HIV1 pIC50 strain IIIB (HIV-1 strain IIIB) | HIV1 pIC50 strain 103N (HIV-1 strain 103 N)
25 | CCc1c(C)[nH]c(=O)c(N)c1CNCc1ccccc1 [Compound 80] | <4 | <4
26 | CCNc1c(Cc2cc(C)cc(C)c2)c(CC)c(C)[nH]c1=O [Compound 81] | 7.866 | 6.444
27 | CCCNc1c(Cc2cc(C)cc(C)c2)c(CC)c(C)[nH]c1=O [Compound 82] | 7.735 | 5.813
28 | CCc1c(C)[nH]c(=O)c(N)c1CNCc1cccc(C)c1 [Compound 83] | <4.033 | <4
29 | CCc1c(C)[nH]c(=O)c(N)c1Cc1nccn1C [Compound 84] | <4 | <4
30 | Cc1cccc(Cc2c(C)c(C)[nH]c(=O)c2N)c1 [Compound 85] | 4.954 | <4
31 | Cc1cccc(Cc2c(C)c(C)[nH]c(=O)c2N(C)C)c1 [Compound 86] | 7.863 | 5.936
32 | CCc1c(C)[nH]c(=O)c(N)c1C(=O)c1cccc(C)c1 [Compound 87] | 6.46 | 5.653
33 | Cc1cccc(C(=O)c2c(C)c(C)[nH]c(=O)c2N(C)C)c1 [Compound 96] | 7.824 | 6.37
34 | CCc1c(C)[nH]c(=O)c(N)c1CN(C)Cc1ccccc1 [Compound 97] | <4 | <4
35 | CCc1cccc(Cc2c(CC)c(C)[nH]c(=O)c2N)c1 [Compound 98] | 5.358 | 4.978
36 | CCc1cccc(Cc2c(CC)c(C)[nH]c(=O)c2N(C)C)c1 [Compound 99] | 8.569 | 6.718
37 | Cc1cc(C)cc(Cc2cc(C)[nH]c(=O)c2N)c1 [Compound 100] | 4.871 | <4
38 | Cc1cc(C)cc(Cc2cc(C)[nH]c(=O)c2N(C)C)c1 [Compound 101] | 6.341 | 4.25
39 | CCc1c(C)[nH]c(=O)c(N(C)C)c1CN(C)Cc1ccccc1 [Compound 102] | 4.369 | <4
40 | CCCc1cccc(Cc2c(CC)c(C)[nH]c(=O)c2N(C)C)c1 [Compound 104] | 8 | 7.058
41 | CCc1c(C)[nH]c(=O)c(N(C)C)c1Cc1cccc(OC)c1 [Compound 121] | 8.469 | 6.948
42 | CCc1c(C)[nH]c(=O)c(N(C)CCCCCO)c1Cc1cc(C)cc(C)c1 [Compound 123] | 8.444 | 6.918
43 | CCc1c(C)[nH]c(=O)c(N(C)C(C)COC)c1Cc1cc(C)cc(C)c1 (stereo not drawn) [Compound 129] | 8.398 | 7.057
44 | CCc1c(C)[nH]c(=O)c(N(C)CCOC)c1Cc1cccc(C)c1 [Compound 136] | 9 | 6.996
45 | CCc1c(C)[nH]c(=S)c(N(C)C)c1C(=O)c1cc(C)cc(C)c1 [Compound 138] | 8.215 | 7.401
46 | CCc1c(C)[nH]c(=O)c(N(C)CCO)c1Cc1cccc(C)c1 [Compound 145] | 8.42 | 6.028
47 | CCc1c(C)[nH]c(=O)c(N(C)C)c1Sc1cc(C)cc(C)c1 [Compound 149] | 8.959 | 7.883
48 | CCc1c(C)[nH]c(=O)c(N(C)CCCCCO)c1Cc1cccc(C)c1 [Compound 154] | 8.009 | 6.262
